Assay [1] deals with VEGF. Description: Interaction with VEGF versus CSF-1 receptor signaling. To be noted: at concentrations where the signaling of the CSF-1 receptor is strongly or completely inhibited.
The test system of assay [2] is choroidal neovascularization. Description: Laser-induced choroidal neovascularization model, CNV area. Type of assay: in vivo, mouse. The following applies: oral daily, 30, 100 or 200 mg/kg, dose dependent; tissues harvested day 7. Here is the method:
To investigate the effects of CSF-1R inhibition on ocular angiogenesis and inflammation, Compound (Ia) was assessed in a rodent model of laser-induced choroidal neovascularization (methods below) for effect on blood vessel growth and cellular infiltration after a laser injury. Compound (Ia) was assessed either as a monotherapy or in combination with a suboptimal dose of a VEGF antibody.
(§1) In one experiment, Compound (Ia) or vehicle was dosed orally at 30, 100 or 200 mg/kg starting about 1 hour before laser and continued administration daily until the day before tissue harvest.
(§2) In a second experiment, mice were dosed daily with 50 mg/kg of Compound (Ia) and with i.p. injections of a mouse anti-VEGF antibody at a dose of 0.3 mg/kg at day 0, 2 and 4. Other groups of mice in the experiment were dosed with monotherapy of Compound (Ia) or the anti-VEGF antibody at higher doses.
Mouse pupils were dilated with one drop (˜40 μL) of 1% cyclopentolate. Just before anesthesia, pupil dilation was maximized with an additional drop of phenylephrine (usually 10% but occasionally 2.5% depending upon availability). […]
Analysis of neovascularization was completed on tissues harvested 7 days after laser photocoagulation. […] CNV area was quantified using a semi-automated analysis program (Axiovision software version 4.5, Carl Zeiss Microscopy) that outlined the fluorescent blood vessels. […]

Assay [3] deals with subretinal Iba1+ cells. Description: Cellular infiltration assay in laser CNV model, subretinal Iba1+ microglia. Type of assay: in vivo, mouse. The protocol:
as §1, §2
(§3) Cellular infiltration into the retina, the PEC or the CNV lesion was assessed after laser application. Eyes were fixed with 4% Paraformaldehyde for ˜90 minutes. After fixation, whole eyes were dissected into the retina and PEC. […]
(§4) Iba1+ cells in the PEC peripheral to the CNV lesion were counted using a different semi-automatic MatLab code. […] The operator is then presented with masked, randomized images and allowed the functionality to remove miscellaneous fluorescence (false positive) and add missed cells (false negative) to the analysis. Confluent microglia cells and CNV lesions were excluded from the quantification analysis. In a study, each assessed condition consisted of 10 eyes from 5 mice and would typically yield 10 data points. […] F4/80+ cells in the retina were counted using a similar semi-automatic MatLab code and followed the same procedure as above. […]

Assay [4] has as its system retinal F4/80+ cells. Description: Cellular infiltration assay in laser CNV model, retinal F4/80+ macrophages. It counts as in vivo, mouse. The protocol: as §1, §2, §3, §4
Assay [5] deals with macrophages in areas around the ciliary body. Description: Macrophages around the ciliary body in CX3CR1-GFP reporter mice. It counts as in vivo, mouse. To be noted: salt of Compound (Ia), oral 200 mg/kg daily for 14 days. Here is the method:
To investigate the effects of CSF-1R inhibition on inflammation, Compound (Ia) was assessed in CX3CR1-GFP reporter mice (which report on macrophage and microglia). The presence of macrophages in areas around the ciliary body in the front of the eye (but not in the cornea) was examined and confirmed by anti-GFP immunohistochemistry staining (see panels (a) and (b) in FIG. 4). The arrow-indicated dots are the positive stained macrophage cells).
In this experiment, mice was treated with a salt of Compound (Ia) orally at 200 mg/kg daily for 14 days and immediately examined for the presence of macrophages (see panels (c) and (d) in FIG. 4).

SMILES strings stand for the structures.

For the compound `CNC(=O)c1cc(Oc2ccc3nc(N[C@@H]4CCCC[C@H]4O)sc3c2)ccn1` [Compound (Ia), 4-((2-(((1R,2R)-2-hydroxycyclohexyl)amino)benzo[d]thiazol-6-yl)oxy)-N-methylpicolinamide], in assay [1], the “interaction with VEGF” value is “not to interact strongly”. The “reduction in CNV area compared to vehicle” value in assay [2] was determined as 75%. Also, in assay [3] (200 mg/kg oral), the “reduction in subretinal Iba1+ cells (microglia)” value was 66-99%. The “microglia in the subretinal space” value in assay [3] (50 and 200 mg/kg) is recorded as “significantly reduced”. Besides, the “reduction in retinal F4/80+ cells (macrophages)” value in assay [4] (200 mg/kg oral) is recorded as 83-84%. For the same compound, the “macrophages in the retina” value in assay [4] (50 and 200 mg/kg) was “significantly reduced”. For the same compound, in assay [5] (day 14), the “macrophages in areas around the ciliary body, day 14” value is reported as “depleted”. In addition, the “macrophages in areas around the ciliary body, day 21” value in assay [5] (day 21) was “started to return”. For the same compound, the “macrophages in areas around the ciliary body, day 44” value in assay [5] (day 44) is reported as “almost back to steady state”.
On to `CNC(=O)c1cc(Oc2ccc3nc(N[C@H]4CCCC[C@@H]4O)sc3c2)ccn1` [Compound (Ib), 4-((2-(((1S,2S)-2-hydroxycyclohexyl)amino)benzo[d]thiazol-6-yl)oxy)-N-methylpicolinamide], for which the “interaction with VEGF” value in assay [1] was “not to interact strongly”.

The values are drawn from patent publication US10537563B2, “Methods for treating ocular disease using inhibitors of CSF-1R” (NOVARTIS AG, priority 2016, dated 2020).
